Laboratory results: patent publication US8026359B2, “Fungicidal heterocyclic amines” (E.I. du Pont de Nemours and Company, priority 2007, dated 2011)

How the values were obtained:
Assay type in all cases: in vivo
Septoria nodorum = assay: Test C: wheat glume blotch, preventive spray on wheat seedlings; conditions: 200 ppm, 100 = 100% disease control, 0 = no control relative to controls; for pest or weed control at 200 ppm: Parastagonospora nodorum, 216 h, read-out: Test C disease control rating
Source text: (§1) General protocol for preparing test suspensions for Tests A-R: The test compounds were first dissolved in acetone in an amount equal to 3% of the final volume and then suspended at the desired concentration (in ppm) in acetone and purified water (50/50 mix) containing 250 ppm of the surfactant Trem® 014 (polyhydric alcohol esters). The resulting test suspensions were then used in tests A-R. In Tests A-M, compounds were sprayed as a 200 ppm test suspension (equivalent to a rate of 500 g/ha) or as a 40 ppm test suspension to the point of runoff on the test plants. In Tests N-R, compounds were sprayed as a 100 g/ha test suspension (equivalent to a rate of 100 ppm) on the test plants at an application volume of 1000 L/ha. The test suspension was sprayed to the point of run-off on wheat seedlings.

Fusarium graminearum = assay: whole plant or invertebrate; conditions: for Test E disease control rating: 200 ppm, 100 = 100% disease control, 0 = no control relative to controls; for pest or weed control at 200 ppm: Fusarium graminearum, in Triticum aestivum, 192 h, read-out: Test E disease control rating
Botrytis cinerea = assay: Test F: tomato Botrytis, preventive spray on tomato seedlings; conditions: 200 ppm, 100 = 100% disease control, 0 = no control relative to controls; for pest or weed control at 200 ppm: Botrytis cinerea, 120 h, read-out: Test F disease control rating
Source text: as §1, with “tomato” for “wheat”

[1] = system: Erysiphe graminis f. sp. tritici; assay: Test A: wheat powdery mildew, preventive spray on wheat seedlings; conditions: 200 ppm, 100 = 100% disease control, 0 = no control relative to controls; for pest or weed control at 200 ppm: Blumeria graminis, 192 h, read-out: Test A disease control rating
Source text: as §1

Septoria tritici = assay: Test D: wheat leaf blotch, preventive spray on wheat seedlings; conditions: 200 ppm, 100 = 100% disease control, 0 = no control relative to controls; for pest or weed control at 200 ppm: Zymoseptoria tritici, 504 h, read-out: Test D disease control rating
Source text: as §1

[2] = system: Puccinia recondita f. sp. tritici; assay: Test B: wheat leaf rust, preventive spray on wheat seedlings; conditions: 200 ppm, 100 = 100% disease control, 0 = no control relative to controls; for pest or weed control at 200 ppm: Puccinia recondita, 192 h, read-out: Test B disease control rating
Source text: as §1

[3] = system: Colletotrichum orbiculare; assay: Test I: cucumber Colletotrichum anthracnose, preventive spray on cucumber seedlings; conditions: 100 = 100% disease control, 0 = no control relative to controls; for Test I disease control rating: 200 ppm; for pest or weed control at 200 ppm: Colletotrichum orbiculare, 144 h, read-out: Test I disease control rating
Source text: as §1, with “cucumber” for “wheat”

| SMILES | Test C disease control rating (Septoria nodorum) | Test E disease control rating (Fusarium graminearum) | Test F disease control rating (Botrytis cinerea) | Test A disease control rating [1] | Test D disease control rating (Septoria tritici) | Test B disease control rating [2] | Test I disease control rating [3] | pest or weed control at 200 ppm (Septoria nodorum) | pest or weed control at 200 ppm (Fusarium graminearum) | pest or weed control at 200 ppm (Botrytis cinerea) | pest or weed control at 200 ppm [1] | pest or weed control at 200 ppm (Septoria tritici) | pest or weed control at 200 ppm [2] | pest or weed control at 200 ppm [3] |
| --- | --- | --- | --- | --- | --- | --- | --- | --- | --- | --- | --- | --- | --- | --- |
| Fc1cccc(Nc2ncnc(-c3ccnc(NC4CCOCC4)n3)n2)c1 [Compound 3] | 100% | 27% | 0% | 64% | 67% | 96% | 94% | – | – | – | – | – | – | – |
| COCC(C)Nc1nccc(-c2ccnc(Nc3c(F)cccc3Cl)c2)n1 (stereo not shown) [Compound 79] | 99% | 0% | 94% | 0% | 5% | 99% | 96% | – | – | – | – | – | – | – |
| Fc1cccc(Nc2cc(-c3ccnc(N[C@H]4CCOC4)n3)ccn2)c1 [Compound 71] | 99% | 0% | 77% | 0% | 25% | 94% | 46% | – | – | – | – | – | – | – |
| COCC(C)Nc1nccc(-c2ccnc(Nc3c(Cl)cccc3Cl)c2)n1 (stereo not shown) [Compound 78] | 99% | 0% | 93% | 39% | 60% | 99% | 98% | – | – | – | – | – | – | – |
| COCC(C)Nc1nccc(-c2ccnc(Nc3c(C)ccc(Cl)c3C)c2)n1 (stereo not shown) [Compound 92] | 100% | 0% | 99% | 91% | 65% | 94% | 0% | – | – | – | – | – | – | – |
| COCC(C)Nc1nccc(-c2ccnc(Nc3c(C)cccc3OC)c2)n1 (stereo not shown) [Compound 85] | 99% | 0% | 93% | 56% | 0% | 94% | 96% | – | – | – | – | – | – | – |
| COCCCNc1nccc(-c2ccnc(Nc3cccc(F)c3)c2)n1 [Compound 64] | 97% | 0% | 0% | 0% | 95% | 94% | 92% | – | – | – | – | – | – | – |
| COCC(C)Nc1nccc(-c2ccnc(Nc3cccc(C(=O)OC)c3)c2)n1 (stereo not shown) [Compound 52] | 90% | 0% | 98% | 0% | 31% | 94% | 0% | – | – | – | – | – | – | – |
| CSCCNc1nccc(-c2ccnc(Nc3cccc(F)c3)c2)n1 [Compound 55] | 78% | 0% | 0% | 0% | 20% | 95% | 0% | – | – | – | – | – | – | – |
| Clc1cccc(Nc2cc(-c3ccnc(NC4CCOCC4)n3)ccn2)c1 [Compound 69, 4-[2-[(3-chlorophenyl)amino]-4-pyridinyl]-N-(tetrahydro-2H-pyran-4-yl)-2-pyrimidinamine] | – | – | – | – | – | – | – | 97% | 0% | 85% | 91% | 77% | 94% | 0% |
| COCC(C)Nc1nccc(-c2ccnc(Nc3c(C)cccc3C)c2)n1 (stereo not shown) [Compound 77] | 99% | 92% | 88% | 95% | 61% | 99% | 96% | – | – | – | – | – | – | – |
| COCC(C)Nc1nccc(-c2ccnc(Nc3ccccc3F)c2)n1 (stereo not shown) [Compound 53] | 96% | 0% | 99% | 88% | 41% | 98% | 26% | – | – | – | – | – | – | – |
| COCC(C)Nc1nccc(-c2cc(Nc3cccc(F)c3)ncn2)n1 (stereo not shown) [Compound 109, N^6′-(3-fluorophenyl)-N^2-(2-methoxy-1-methylethyl) [4,4′-bipyrimidine]-2,6′-diamine] | – | – | – | – | – | – | – | 94% | 0% | 0% | 0% | 5% | 96% | 9% |
| Clc1cccc(Nc2ncnc(-c3ccnc(NC4CCOCC4)n3)n2)c1 [Compound 4, N-(3-chlorophenyl)-4-[2-[(tetrahydro-2H-pyran-4-yl)amino]-4-pyrimidinyl]-1,3,5-triazin-2-amine] | – | – | – | – | – | – | – | 99% | 0% | 0% | 0% | 11% | 91% | 66% |
| Fc1cccc(Nc2cc(-c3ccnc(NC4CCCOC4)n3)ccn2)c1 (stereo not shown) [Compound 75] | 89% | 0% | 90% | 0% | 28% | 83% | 9% | – | – | – | – | – | – | – |
| COCC(C)Nc1nccc(-c2ccnc(Nc3c(C)ccc4ccccc34)c2)n1 (stereo not shown) [Compound 86] | 94% | 0% | 96% | 27% | 0% | 55% | 0% | – | – | – | – | – | – | – |
